# Measured values reported in patent publication US20240058344A1, “METHODS OF TREATING NEURODEGENERATIVE DISORDERS AND STAT3-LINKED CANCERS USING SUPPRESSORS OF ELECTRON LEAK” (Cornell University, priority 2020, published 2024).
# How the values were obtained:
# [1] = Brain levels of compound after i.p. injection or oral consumption (pharmacokinetics); assay type: in vivo, mice
# Method: (FIGS. 1A-B) Levels of S3QEL2 (FIG. 1A) and S1QEL1.1 (FIG. 1B) in the brain following a single i.p. injection or oral consumption (per oral, PO), which improved duration of exposure. n=3-6 wild-type mice per group. (FIGS. 1C-D) Body weights of male nontransgenic (NTG) or hTauP301S mice treated with S3QEL2 (FIG. 1C) (S3, 5 mg/kg/day, PO in almond butter), S1QEL1.1 (FIG. 1D) (10 mg/kg/day, PO in almond butter), or vehicle. (FIG. 1E) Levels of S3QEL2 in the mouse brain following almond butter (AB) or chow administration at indicated doses for 21 days. (n=15 mice per dose). n=3-15 wild-type mice per condition. (FIG. 1F) Body weight of 4-5-month-old wild-type male mice treated with formulated chow containing S3QEL2 at indicated doses and durations (n=15 mice per dose).
# A series of pharmacokinetic and drug tolerance experiments with S3QEL2 in adult wild-type and transgenic hTauP301S mice was first performed. Different administration routes and drug formulations were tested. […] Chow that was formulated to deliver 0, 5, 15, or 30 mg/kg/day of S3QEL2 was also tested.
# [2] = system: U-87 MG glioblastoma cells; assay: Glioblastoma cell proliferation, CellTiter-Glo luciferase assay, U-87 MG; assay type: cell-based, human; conditions: 0-50 μM, 72 and 96 h
# Method: (§1) Relative cell density was measured using the CellTiter-Glo luciferase assay. n=3 wells per condition. *p<0.05, **p<0.01, ***p<0.001 vs. 0 μM, one-way ANOVA with Dunnett's multiple comparisons test.
# (§2) The effect of S3QELs on proliferation of glial tumor cells that have different oncogenic mutations was assessed. In particular, proliferation rates were assessed in three different human immortalized glioblastoma cells lines (A-172, T98G, and U-87 MG). A-172 and U-87 lines have mutations in PTEN, a phosphatase that indirectly regulates PI3K activities, whereas T98G cell line has a mutation in p53, a well-known tumor suppressor gene. STAT3 can affect PI3K signaling and p53 transcription and could thereby promote glioblastoma cell proliferation. Whether S3QELs reduce glioblastoma cell proliferation and aberrant intracellular signaling was tested.
# (§3) Briefly, two complementary methods were used to assess cell proliferation, including the CellTiter-Glo assay and DAPI staining of cell nuclei. The effects of S3QEL2 treatment on A-172, T98G, and U-87 MG cells were measured at different drug concentrations (0, 6, 20, 30, 40, or 50 μM) and time-points after treatment (72 or 96 hours). S3QEL2 inhibits proliferation of A-172 and T98G glioblastoma cells in a highly dose-dependent manner and these effects are similar at different time-points (FIG. 15A-B).
# [3] = system: Nrf2; assay: Hippocampal RNA levels of Nrf2 in hTauP301S mice; assay type: in vivo; conditions: 5 mg/kg/day, six weeks
# [4] = system: T98G glioblastoma cells; assay: Glioblastoma cell proliferation, CellTiter-Glo luciferase assay, T98G; assay type: cell-based, human; conditions: 0-50 μM, 72 and 96 h
# Method: as §1, §2, §3
# [5] = system: astrocytes; assay: Oxygen consumption rates (mitochondrial respiration) in astrocytes; assay type: cell-based
# Source text: Oxygen consumption rates (OCR) and maximal consumption rates are shown for indicated S3QEL2 concentrations and time points. Antimycin and rotenone were used as positive controls to inhibit mitochondrial respiration. ***p<0.001 vs. vehicle, two-way repeated measures ANOVA with Dunnett's multiple comparisons test.
# [6] = system: STAT3; assay: Phospho-STAT3 and total STAT3 in primary astrocytes (Western blotting); assay type: cell-based, mice; conditions: for Phosphorylated STAT3 levels / Total STAT3 levels: S3QEL2 60 μM
# Method: (§4) (FIGS. 11A-11B) Astrocytes isolated from P2-P3 mice were treated with oligomeric Aβ (3 μM) and S3QEL2 (S3, 20 μM) or vehicle (V) for 24 h and analyzed by qRT-PCR (FIG. 11A) or Western blotting (B) and normalized to vehicle controls. (FIG. 11B) Phospho-STAT3 levels were normalized to total STAT3 per sample. n=3 wells per condition; *p<0.05, **p<0.01, ***p<0.001, ANOVA with Dunnett's test.
# (FIGS. 12A-12B) Astrocytes isolated from P2-P3 mice were treated with oligomeric Aβ (3 μM) (A) or A1 cocktail consisting of 30 ng/mL TNF-α, 3 ng/mL IL-1α, and 400 ng/mL Clq (B), and S3QEL2 (S3, 60 μM) or vehicle (Con) for indicated durations and analyzed by Western blotting. Phospho-STAT3 levels were normalized to total STAT3 per sample, and total STAT3 levels were normalized to γ-tubulin levels per sample. n≥3 wells per condition; *p<0.05, **p<0.01, ***p<0.001, one-way ANOVA with Tukey's multiple comparisons test.
# (FIG. 17A) Astrocytes isolated from P2-P3 mice were treated with A1 cocktail consisting of 30 ng/ml TNF-α, 3 ng/ml IL-1α, and 400 ng/ml Clq, and S3QEL1.2 (3 μM) or vehicle for approximately 6 h and analyzed by Western blotting. Phospho-STAT3 levels were normalized to total STAT3 per sample. n=6 wells per condition. **p<0.01, ***p<0.001, one-way ANOVA with Dunnett's multiple comparisons test. (FIG. 17B) Astrocytes isolated from P2-P3 mice were treated with A1 cocktail consisting of 30 ng/ml TNF-α, 3 ng/ml IL-1α, and 400 ng/ml Clq for 24 h, and analyzed for levels of released H2O2 using Amplex UltraRed, a fluorogenic substrate that is a highly sensitive indicator of H2O2, in the presence of horseradish peroxidase and superoxide dismutase. n=6 wells per condition. *p=0.01, Student's t test. (FIG. 17C) Astrocytes isolated from P2-P3 mice were treated with vehicle or 3 ng/ml IL-1α and either S3QEL2 (20 μM), S3QEL1.2 (1 μM), or vehicle for approximately 24 h, and analyzed for levels of released H2O2 using Amplex UltraRed. n=6 wells per condition. *p<0.05, **p<0.01, ***p<0.001, two-way ANOVA with Bonferroni's multiple comparisons test.
# Similar to oligomeric Aβ, A1 cocktail (which is a mixture of TNF-α, IL-1α, and Clq) induced astrocytic reactivity that is associated with synaptic damage and neurodegeneration.
# Given that this compound has a different chemical structure, these findings indicate that S3QELs suppress astrocytic reactivity and neuroinflammatory responses through modulation of complex III ROS rather than modulation of other off-target or nonspecific mechanisms.
# [7] = system: primary astrocytes; assay: Markers of reactivity in primary astrocytes treated with oligomeric Aβ (qRT-PCR); assay type: cell-based, mice; conditions: oligomeric Aβ 3 μM, S3QEL2 20 μM, 24 h
# Method: as §4
# To further assess if S3QELs alter glial functions, the effects of S3QEL2 on isolated astrocytes and microglia was tested. […] These markers included genes associated with neurodegeneration and aging, such as complement component C3, which promotes synapse elimination in disease, and phosphorylated STAT3, which is considered a central regulator of astrocytic reactivity.
# [8] = A1 cocktail (TNF-α, IL-1α, Clq)
smiles,measurement,setting,value
CCCN(CCC)c1ncnc2c1cnn2-c1ccc(C)c(C)c1 [S3QEL2],Crossing of the blood-brain barrier (levels in the brain),"[1]; after peripheral administration, wild-type mice",readily crossed the blood-brain barrier
same,"Increase in the area under the curve of drug presence in the brain, oral intake as compared to i.p. injection","[1]; brain, oral vs intraperitoneal",6 fold
same,Chronic delivery to the brain by formulated chow,"[1]; chow vs almond butter, 21 days, wild-type mice",equally effective in chronically delivering S3QEL2 to the brain
same,"Cell proliferation (relative cell density, CellTiter-Glo)",[2],minimal effect
same,Hippocampal Nrf2 RNA levels,[3],reduced
same,"Cell proliferation (relative cell density, CellTiter-Glo)",[4],dose-dependently inhibited cell proliferation
same,"Mitochondrial respiration (oxygen consumption rates, OCR)",[5],does not affect mitochondrial respiration
same,Phosphorylated STAT3 levels,[6]; [8],reduced
same,Total STAT3 levels,[6]; [8],reduced
same,Phospho-STAT3 levels normalized to total STAT3,"[6]; oligomeric Aβ 3 μM, S3QEL2 20 μM, 24 h",reduced
same,Phosphorylated STAT3 levels,[6]; oligomeric Aβ 3 μM,reduced
same,Total STAT3 levels,[6]; oligomeric Aβ 3 μM,reduced
same,Markers of reactivity (genes incl. complement component C3),[7],reduced markers of reactivity
